Test results taken from patent US20100075950A1, “PHENY[…] DOPAMINE RECEPTOR” (AUSPEX PHARMACEUTICALS, INC., priority 2008, published 2010).

Assay: In vitro liver microsomal stability assay
Assay type: in vitro ADME
Settings: 1 mg per mL liver microsome protein, NADPH-generating system, 5 microgram per mL test compound, about 37° C., 0-60 minutes, LC/MS/MS
Protocol: Liver microsomal stability assays were conducted at 1 mg per mL liver microsome protein with an NADPH-generating system in 2% NaHCO3 (2.2 mM NADPH, 25.6 mM glucose 6-phosphate, 6 units per mL glucose 6-phosphate dehydrogenase and 3.3 mM MgCl2). Test compounds were prepared as solutions in 20% acetonitrile-water and added to the assay mixture (final assay concentration 5 microgram per mL) and incubated at about 37° C. Final concentration of acetonitrile in the assay should be <1%. Aliquots (50 μL) were taken out at times 0, 15, 30, 45, and 60 minutes, and diluted with ice cold acetonitrile (200 μL) to stop the reactions. Samples were centrifuged at 12,000 RPM for about 10 minutes to precipitate proteins. Supernatants were transferred to microcentrifuge tubes and stored for LC/MS/MS analysis of the degradation half-life of the test compounds.

Cl.[2H]C([2H])([2H])C(NC(C)C(=O)c1cccc(Cl)c1)(C([2H])([2H])[2H])C([2H])([2H])[2H] (stereo not shown) [Example 2, 2-(tent-d9-Butylamino)-1-(3-chlorophenyl)propan-1-one Hydrochloride]
degradation half-life as compared to the non-isotopically enriched compound: improved degradation half-life
